Experiment [1] concerns the target T1, human CB1 receptor (Homo sapiens, UniProt P21554).
T1 construct: expressed in transfected cells; host or cells: HEK293
Description: bioSensAll GAPL-Gi2 BRET biosensor assay in HEK293 cells transfected with hCB1; test compound added before EC75-80 of agonist CP55,940 (0.1 nM). It counts as cell-based. Conditions: vs CP55,940 0.1 nM (EC75-80), read-out: CB1 wt Gi2 IC50. Put shortly:
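Test compounds at 12 doses up to 600 nM preceded a 0.1 nM CP55,940 challenge in hCB1/GAPL-Gi2 HEK293 cells. After overnight 37° C incubation, methoxy e-coelenterazine (2 µM final) was added and the 515/400 nm BRET ratio normalized to positive and negative controls.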
(In BRET a luciferase serves as donor, and the signal depends on an acceptor being close.)

Experiment [2] concerns the target T1, human CB1 receptor. Nature of the experiment: bioSensAll β-arrestin2 plasma membrane translocation (+GRK2) BRET biosensor assay in HEK293 cells transfected with hCB1; test compound added before EC75-80 of agonist CP55,940 (100 nM). It counts as cell-based. Conditions: βArrestin2 (+GRK2) BRET biosensor, vs CP55,940 100 nM (EC75-80), read-out: CB1 wt βarr2 IC50. Put shortly:
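Antagonist mode: compound at 12 concentrations up to 600 nM, then 100 nM CP55,940 3–5 min later, on hCB1-transfected HEK293 cells carrying the β-arrestin2 plasma-membrane biosensor plus GRK2. After overnight 37 °C incubation, 515/400 nm BRET ratio measured with 2 µM methoxy e-CTZ and standardized against positive/negative controls.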

Bounds are passed on as bounds.

T1 sequence (P21554 whole entry): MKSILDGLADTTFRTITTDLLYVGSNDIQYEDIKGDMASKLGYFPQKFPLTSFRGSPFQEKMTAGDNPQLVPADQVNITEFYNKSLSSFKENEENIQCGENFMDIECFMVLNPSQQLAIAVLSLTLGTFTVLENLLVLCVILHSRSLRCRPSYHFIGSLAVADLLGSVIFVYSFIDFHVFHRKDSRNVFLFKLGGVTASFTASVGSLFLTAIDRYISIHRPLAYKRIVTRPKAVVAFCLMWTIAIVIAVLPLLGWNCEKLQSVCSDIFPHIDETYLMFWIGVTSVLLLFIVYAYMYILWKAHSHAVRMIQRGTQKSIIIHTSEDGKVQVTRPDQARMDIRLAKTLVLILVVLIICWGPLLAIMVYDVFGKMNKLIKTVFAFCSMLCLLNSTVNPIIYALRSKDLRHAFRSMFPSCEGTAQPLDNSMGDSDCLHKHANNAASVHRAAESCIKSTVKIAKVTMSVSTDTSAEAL

As usually defined, the IC50 is the concentration needed to halve the response being measured. On to `CN(CC(C)(C)O)c1nc(N2CCC(C)(C(N)=O)CC2)c2nc(-c3ccc(C#N)nc3)n(-c3ccc(Cl)cc3)c2n1` [Compound 110, 1-[9-(4-chlorophenyl)-8-(6-cyano-3-pyridyl)-2-[(2-hydroxy-2-methyl-propyl)-methyl-amino]purin-6-yl]-4-methyl-piperidine-4-carboxamide], for which the IC50 at human CB1 receptor [1] was found to be 6.33 nM; at human CB1 receptor [2], 13 nM.
For `CC(C)(O)CNc1nc(N2CCC(C)(C(N)=O)CC2)c2nc(-c3ccc(C#N)nc3)n(-c3ccc(Cl)cc3)c2n1` [Compound 111, 1-[9-(4-chlorophenyl)-8-(6-cyano-3-pyridyl)-2-[(2-hydroxy-2-methyl-propyl)amino]purin-6-yl]-4-methyl-piperidine-4-carboxamide] the same measures were 18.4 nM and 53.7 nM.
For `CC(C)(O)COc1nc(N2CC(C)(O)C2)c2nc(-c3ccc(C#N)nc3)n(-c3ccc(Cl)cc3)c2n1` [Compound 112, 5-[9-(4-chlorophenyl)-6-(3-hydroxy-3-methyl-azetidin-1-yl)-2-(2-hydroxy-2-methyl-propoxy)purin-8-yl]pyridine-2-carbonitrile] the same measures were 88.3 nM and 105 nM.
The corresponding values for `CC(C)(O)COc1nc(N2CC(C)(C#N)C2)c2nc(-c3ccc(C#N)nc3)n(-c3ccc(Cl)cc3)c2n1` [Compound 113, 5-[9-(4-chlorophenyl)-6-(3-cyano-3-methyl-azetidin-1-yl)-2-(2-hydroxy-2-methyl-propoxy)purin-8-yl]pyridine-2-carbonitrile] are 7.11 nM and 15.5 nM.
Turning to `COC1(C)CN(c2nc(OCC(C)(C)O)nc3c2nc(-c2ccc(C#N)nc2)n3-c2ccc(Cl)cc2)C1` [Compound 114, 5-[9-(4-chlorophenyl)-2-(2-hydroxy-2-methyl-propoxy)-6-(3-methoxy-3-methyl-azetidin-1-yl)purin-8-yl]pyridine-2-carbonitrile], the IC50 at human CB1 receptor [1] worked out at 3.87 nM; at human CB1 receptor [2], 14.1 nM.
The corresponding values for `Cc1cnc(-c2nc3c(N4CCC(C)(C(N)=O)CC4)nc(N(C)CCO)nc3n2-c2ccc(Cl)cc2)n1C` [Compound 115, 1-(9-(4-chlorophenyl)-8-(1,5-dimethyl-1H-imidazol-2-yl)-2-((2-hydroxyethyl)(methyl)amino)-9H-purin-6-yl)-4-methylpiperidine-4-carboxamide] are 17.8 nM and 93.6 nM.
The corresponding values for `CN(C)c1ccc(-c2nc3c(N4CCC(C)(C(N)=O)CC4)nc(OCC(C)(C)O)nc3n2-c2ccc(Cl)cc2)cn1` [Compound 116, 1-[9-(4-chlorophenyl)-8-[6-(dimethylamino)-3-pyridyl]-2-(2-hydroxy-2-methyl-propoxy)purin-6-yl]-4-methyl-piperidine-4-carboxamide] are 68.8 nM and over 5000 nM.
The corresponding values for `CN1CCC[C@H]1COc1nc(N2CCC(C)(C(N)=O)CC2)c2nc(-c3ccccc3Cl)n(-c3ccc(Cl)cc3)c2n1` [Compound 117, 1-[8-(2-chlorophenyl)-9-(4-chlorophenyl)-2-[[(2S)-1-methylpyrrolidin-2-yl]methoxy]purin-6-yl]-4-methyl-piperidine-4-carboxamide] are 1.64 nM and 3.76 nM.
Consider `CCOC1(C(N)=O)CCN(c2nc(OCC(C)(C)O)nc3c2nc(-c2ccc(C#N)nc2)n3-c2ccc(Cl)cc2)CC1` [Compound 120, 1-[9-(4-chlorophenyl)-8-(6-cyano-3-pyridyl)-2-(2-hydroxy-2-methyl-propoxy)purin-6-yl]-4-ethoxy-piperidine-4-carboxamide], for which the IC50 at human CB1 receptor [1] was 16.9 nM; on human CB1 receptor [2], 25.4 nM.
For `CC(C)(O)COc1nc(N2CCC(C)(C(N)=O)CC2)c2nc(-c3ccncc3Cl)n(-c3ccc(Cl)cc3)c2n1` [Compound 121, 1-[9-(4-chlorophenyl)-8-(3-chloro-4-pyridyl)-2-(2-hydroxy-2-methyl-propoxy)purin-6-yl]-4-methyl-piperidine-4-carboxamide] the same measures were 2.6 nM and 17 nM.
The corresponding values for `CC(C)(O)COc1nc(-c2ccc(C(F)(F)F)nc2)c2nc(-c3ccccc3Cl)n(-c3ccc(Cl)cc3)c2n1` [Compound 123] are 0.876 nM and 2.04 nM.
The corresponding values for `CN(CC(C)(C)O)c1nc(-c2ccc(C(F)(F)F)nc2)c2nc(-c3ccccc3Cl)n(-c3ccc(Cl)cc3)c2n1` [Compound 124] are 3.23 nM and 12.1 nM.
`CN(CC1COC1)c1nc(-c2ccc(C(F)(F)F)nc2)c2nc(-c3ccccc3Cl)n(-c3ccc(Cl)cc3)c2n1` [Compound 125]: the IC50 was found to be 4.99 nM on human CB1 receptor [1] and 16.4 nM at human CB1 receptor [2].
The corresponding values for `CN(CC1(C)COC1)c1nc(-c2ccc(C(F)(F)F)nc2)c2nc(-c3ccccc3Cl)n(-c3ccc(Cl)cc3)c2n1` [Compound 126] are 8.07 nM and 20.7 nM.
Regarding `Cc1nc(N2CCC(C)(C(N)=O)CC2)c2nc(-c3ccccc3Cl)n(-c3ccc(Cl)cc3)c2n1` [Compound 127], the IC50 at human CB1 receptor [1] turned out to be 9.42 nM; on human CB1 receptor [2] it was 40.9 nM.
The corresponding values for `CN(CC(C)(C)O)c1nc(N2CC(C(N)=O)C2)c2nc(-c3ccccc3Cl)n(-c3ccc(Cl)cc3)c2n1` [Compound 128] are 9.52 nM and 39.5 nM.
The corresponding values for `CC1(C(N)=O)CCN(c2nc(N3CCC[C@H]3CO)nc3c2nc(-c2ccc(C#N)nc2)n3-c2ccc(Cl)cc2)CC1` [Compound 130, 1-[9-(4-chlorophenyl)-8-(6-cyano-3-pyridyl)-2-[(2S)-2-(hydroxymethyl)pyrrolidin-1-yl]purin-6-yl]-4-methyl-piperidine-4-carboxamide] are 0.592 nM and 1.2 nM.
For `CC1(C(N)=O)CCN(c2nc(N3CC[C@@H](O)C3)nc3c2nc(-c2ccc(C#N)nc2)n3-c2ccc(Cl)cc2)CC1` [Compound 131, 1-[9-(4-chlorophenyl)-8-(6-cyano-3-pyridyl)-2-[(3R)-3-hydroxypyrrolidin-1-yl]purin-6-yl]-4-methyl-piperidine-4-carboxamide] the same measures were 0.713 nM and 2.95 nM.
As to `CCOC1(C(N)=O)CCN(c2nc(NCC(C)(C)O)nc3c2nc(-c2ccc(C#N)nc2)n3-c2ccc(Cl)cc2)CC1` [Compound 132, 1-[9-(4-chlorophenyl)-8-(6-cyano-3-pyridyl)-2-[(2-hydroxy-2-methyl-propyl)amino]purin-6-yl]-4-ethoxy-piperidine-4-carboxamide], the results for the IC50 at human CB1 receptor [1] and at human CB1 receptor [2] were 17.8 nM and over 5000 nM, respectively.
On to `CCOC1(C(N)=O)CCN(c2nc(N3CCC[C@H]3CO)nc3c2nc(-c2ccc(C#N)nc2)n3-c2ccc(Cl)cc2)CC1` [Compound 133, 1-[9-(4-chlorophenyl)-8-(6-cyano-3-pyridyl)-2-[(2S)-2-(hydroxymethyl)pyrrolidin-1-yl]purin-6-yl]-4-ethoxy-piperidine-4-carboxamide], for which the IC50 at human CB1 receptor [1] amounted to 0.673 nM; at human CB1 receptor [2], 1.8 nM.
For `CC(C)OC1(C(N)=O)CCN(c2nc(OCC(C)(C)O)nc3c2nc(-c2ccc(C#N)nc2)n3-c2ccc(Cl)cc2)CC1` [Compound 135] the same measures were 2.3 nM and 11.7 nM.
For `CC(C)OC1(C(N)=O)CCN(c2nc(N3CCC[C@H]3CO)nc3c2nc(-c2ccc(C#N)nc2)n3-c2ccc(Cl)cc2)CC1` [Compound 136, 1-[9-(4-chlorophenyl)-8-(6-cyano-3-pyridyl)-2-[(2S)-2-(hydroxymethyl)pyrrolidin-1-yl]purin-6-yl]-4-isopropoxy-piperidine-4-carboxamide] the same measures were 0.848 nM and 1.75 nM.
On to `CC(C)(O)COc1nc(N2CC(C)(C(N)=O)C2)c2nc(-c3ccc(C#N)nc3)n(-c3ccc(Cl)cc3)c2n1` [Compound 138], for which the half-maximal inhibitory concentration (IC50) was 34.1 nM at human CB1 receptor [1] and over 5000 nM on human CB1 receptor [2].
The corresponding values for `CCOC1(C(N)=O)CN(c2nc(OCC(C)(C)O)nc3c2nc(-c2ccc(C#N)nc2)n3-c2ccc(Cl)cc2)C1` [Compound 139, 1-[9-(4-chlorophenyl)-8-(6-cyano-3-pyridyl)-2-(2-hydroxy-2-methyl-propoxy)purin-6-yl]-3-ethoxy-azetidine-3-carboxamide] are 7.55 nM and 58.8 nM.
For `N#Cc1ccc(-c2nc3c(N4CC(C(N)=O)C4)nc(N4CCC[C@H]4CO)nc3n2-c2ccc(Cl)cc2)cn1` [Compound 140] the same measures were 1.22 nM and 8.69 nM.
For `CCNC1(C(N)=O)CCN(c2nc(NCCO)nc3c2nc(-c2ccccc2Cl)n3-c2ccc(Cl)cc2)CC1` [Compound 141] the same measures were 0.982 nM and 2.28 nM.
For the compound `CCNC1(C(N)=O)CCN(c2nc(OCCO)nc3c2nc(-c2ccccc2Cl)n3-c2ccc(Cl)cc2)CC1` [Compound 142], the IC50 worked out at 0.892 nM at human CB1 receptor [1] and 2.6 nM at human CB1 receptor [2].
The corresponding values for `CCNC1(C(N)=O)CCN(c2nc(N3CCC[C@H]3CO)nc3c2nc(-c2ccccc2Cl)n3-c2ccc(Cl)cc2)CC1` [Compound 143] are 0.837 nM and 1.59 nM.
The corresponding values for `CCNC1(C(N)=O)CCN(c2nc(Cl)nc3c2nc(-c2ccccc2Cl)n3-c2ccc(Cl)cc2)CC1` [Compound 144, 1-(2-chloro-8-(2-chlorophenyl)-9-(4-chlorophenyl)-9H-purin-6-yl)-4-(ethylamino)piperidine-4-carboxamide] are 1.35 nM and 6.22 nM.
Take `CCNC1(C(N)=O)CCN(c2nc(NC(C)=O)nc3c2nc(-c2ccccc2Cl)n3-c2ccc(Cl)cc2)CC1` [Compound 145]: the IC50 at human CB1 receptor [1] was found to be 0.973 nM; on human CB1 receptor [2], 3 nM.

Values taken from US20250333418A1, “PURINE COMPOUNDS, COMPOSITIONS COMPRISING THEM AND USES THEREOF” (Novo Nordisk A/S, priority 2022, published 2025).
